Test results taken from patent US12594267B2, “Capsid inhibitors for the treatment of HIV” (Gilead Sciences, Inc., priority 2018, dated 2026).
Where two headings read alike, the source gives them in different places.

Experiment: PK after subcutaneous administration of solutions in dogs
Assay type: in vivo, Beagle dog
Settings: male, beagle, dog, plasma, sc, 12 mg/kg; for concentration at 336 h / concentration at 504 h / concentration at 672 h / concentration at 840 h / concentration at 1008 h / concentration at 1344 h / concentration at 1680 h / concentration at 1 h / concentration at 3 h / concentration at 8 h / concentration at 24 h / concentration at 48 h / concentration at 72 h / concentration at 96 h / concentration at 168 h: SC 12 mg/kg, 400 mg/mL in 15% water/85% PEG 300; for AUC(0-t): male beagle dog, single SC 12 mg/kg, 400 mg/mL in 85% PEG300 and 15% water, mean ± SD
Method: Formulations containing the compound of Formula (Ia) were prepared as aqueous solutions or oral formulations and administered subcutaneously to rats, dogs, cynomolgus monkey, and/or rhesus monkey.
A solution of the compound of Formula (Ia) in 10% ethanol, 13% water, and 77% PEG 200 (400 mg/mL) was prepared. The solution was administered subcutaneously to dogs at a dose of 12 mg/kg and rats at a dose of 50 mg/kg and the pharmacokinetic (PK) profile was determined. […] In both species, plasma concentrations of the compound of Formula (Ia) were maintained above the target trough concentration of 20 nM (corresponding to an IQ of 5) for at least 84 days (12 weeks).
A solution of the compound of Formula (Ia) in 15% water and 85.0 PEG 300 (400 mg/mL) was prepared. The solution was administered subcutaneously to male beagle dogs at a dose level of 12 mg/kg and dose volume of […] and the pharmacokinetic (PK) profile was determined.
A solution of the compound of Formula (a) sodium salt in water and 300 (300 mg/mL) was prepared that contained 22.6% water/50% PEG 300/1.1% NaOH/26.3% Formula (Ia). The solution was administered subcutaneously to male beagle dogs at a dose level of 12 mg/kg and dose volume of […] and the pharmacokinetic (PK) profile was determined.
A 300 mg/ml solution of a compound of Formula (Ia) having 9.8 w/w % water, 65.0 w/w % PEG 300, and 25.2 w/w % of the compound of Formula (Ia) was prepared. The solution was administered subcutaneously to rats at a dose of 50 mg/kg and to dogs at a dose of 12 mg/kg and the pharmacokinetic (PK) profile was determined. […] In the rat, plasma concentrations of the compound of Formula (Ia) were maintained above the target trough concentration of 20 nM for at least 168 days (24 weeks). In the dog, plasma concentrations of the compound of Formula (Ia) were maintained above the target trough concentration of 20 nM for at least 84 days (12 weeks).
(§1) A 150 mg/ml solution of a compound of Formula (Ia) having 27.92 w/w % water, 58.04 w/w % PEG 300, 13.47 w/w % of a compound of Formula (Ia), and 1.1 w/w % NaOH was prepared. The solution was administered subcutaneously to rats at a dose of 50 mg/kg and to dogs at a dose of 12 mg/kg and the pharmacokinetic (PK) profile was determined. […] In the rat, plasma concentrations of the compound of Formula (Ia) were maintained above the target trough concentration of 20 nM for at least 126 days (18 weeks). In the dog, plasma concentrations of the compound of Formula (Ia) were maintained above the target trough concentration of 20 nM for at least 56 days (8 weeks).
as §1, with “300” for “150”, “23.2” for “27.92”, “50.0” for “58.04”, “25.7” for “13.47”
A 50 mg/ml solution of a compound of Formula (Ia) having 30.07 w/w % water, 64.40 w/w % PEG 300, 4.68 w/w % of a sodium salt of the compound of Formula (Ia), and 0.85 w/w % poloxamer 188 was prepared. The solution was administered subcutaneously to rats at a dose of 50 mg/kg and to dogs at a dose of 6 mg/kg and the pharmacokinetic (PK) profile was determined. […] In the rat, plasma concentrations of the compound of Formula (Ia) were maintained above the target trough concentration of 20 nM for at least 28 days (4 weeks). In the dog, plasma concentrations of the compound of Formula (Ia) were maintained above the target trough concentration of 20 nM for at least 14 days (2 weeks). […]

## CC(C)(C#Cc1ccc(-c2ccc(Cl)c3c(NS(C)(=O)=O)nn(CC(F)(F)F)c23)c([C@H](Cc2cc(F)cc(F)c2)NC(=O)Cn2nc(C(F)(F)F)c3c2C(F)(F)[C@@H]2C[C@H]32)n1)S(C)(=O)=O [Formula (Ia), N—((S)-1-(3-(4-chloro-3-(methylsulfonamido)-1-(2,2,2-trifluoroethyl)-1H-indazol-7-yl)-6-(3-methyl-3-(methylsulfonyl)but-1-yn-1-yl)pyridin-2-yl)-2-(3,5-difluorophenyl)ethyl)-2-((3bS,4aR)-5,5-difluoro-3-(trifluoromethyl)-3b,4,4a,5-tetrahydro-1H-cyclopropa[3,4]cyclopenta[1,2-c]pyrazol-1-yl)acetamide]
Dog #1
  concentration at 336 h: 135 nM
  concentration at 504 h: 172 nM
  concentration at 672 h: 93.1 nM
  concentration at 840 h: 150 nM
  concentration at 1008 h: 80.2 nM
  concentration at 1344 h: 42.7 nM
  concentration at 1680 h: 69.5 nM
Dog #2
  concentration at 1 h: 1.2 nM
  concentration at 3 h: 2.6 nM
  concentration at 8 h: 15.5 nM
  concentration at 24 h: 27.8 nM
  concentration at 48 h: 60.6 nM
  concentration at 72 h: 37.8 nM
  concentration at 96 h: 28.8 nM
  concentration at 168 h: 43.1 nM
  concentration at 336 h: 64.7 nM
  concentration at 504 h: 114 nM
  concentration at 672 h: 81.5 nM
  concentration at 840 h: 110 nM
  concentration at 1008 h: 70.7 nM
  concentration at 1344 h: 41.2 nM
  concentration at 1680 h: 42.2 nM
Dog #3
  concentration at 1 h: 1.2 nM
  concentration at 3 h: 2.3 nM
  concentration at 8 h: 9.2 nM
  concentration at 24 h: 16.8 nM
  concentration at 48 h: 13.2 nM
  concentration at 72 h: 13.2 nM
  concentration at 96 h: 10.4 nM
  concentration at 168 h: 30.8 nM
  concentration at 336 h: 53 nM
  concentration at 504 h: 82.9 nM
  concentration at 672 h: 56.9 nM
  concentration at 840 h: 107 nM
  concentration at 1008 h: 54.1 nM
  concentration at 1344 h: 30.2 nM
  concentration at 1680 h: 28.5 nM
Dog mean, n=3
  concentration at 3 h: 2 nM
  concentration at 8 h: 11.8 nM
  concentration at 24 h: 21.5 nM
  concentration at 48 h: 42.8 nM
  concentration at 72 h: 37.9 nM
  concentration at 96 h: 32.7 nM
  concentration at 168 h: 48.6 nM
  concentration at 336 h: 84.2 nM
  concentration at 504 h: 123 nM
  concentration at 672 h: 77.2 nM
  concentration at 840 h: 122 nM
  concentration at 1008 h: 68.3 nM
  concentration at 1344 h: 38 nM
  concentration at 1680 h: 46.7 nM
Dog mean
  concentration at 1 h: 1.2 nM
n=3, read-out: AUC0-24h
  AUC(0-t): 0.304 ± 0.082 µM·h
n=3, read-out: AUC0-48h
  AUC(0-t): 1.08 ± 0.44 µM·h
n=3, read-out: AUC0-72h
  AUC(0-t): 2.04 ± 0.98 µM·h
n=3, read-out: AUC0-168h
  AUC(0-t): 5.82 ± 3.04 µM·h
n=3, read-out: AUC0-672h
  AUC(0-t): 51.2 ± 21 µM·h
n=3, read-out: AUC0-1344h
  AUC(0-t): 102 ± 30 µM·h
